Data: patent US20250302799A1, “PHARMACEUTICAL COMPOSITION CONTAINING FRAXETIN FOR PREVENTION OR TREATMENT OF ENDOMETRIOSIS” (Research & Business Foundation Sungkyunkwan University, priority 2024, published 2025)

Experiments:
Format in all cases: cell-based, human
VK2/E6E7 cells [1] = experiment: ROS generation by DCFH-DA flow cytometry
Protocol: (§1) To assess the inhibitory effect of fraxetin on ROS generation in endometrial cells, the inventors used flow cytometry to measure ROS levels. In brief, endometriosis cells were stained with DCFH-DA (final concentration 10 μM) for 30 minutes and treated with 50 μM fraxetin in experimental groups, with or without 2 mM N-acetylcysteine (NAC; Cat No. A0737, Sigma), in a 37° C. incubator. Afterward, the cells were washed with PBS, and ROS levels were detected by measuring fluorescence DCF via flow cytometry.

End1/E6E7 cells [2] = experiment: ROS generation by DCFH-DA flow cytometry
Protocol: as §1

End1/E6E7 cells [3] = experiment: Western blot analysis of protein expression and phosphorylation
Protocol: To analyze protein expression related to the development of endometriosis following fraxetin treatment, the inventors conducted western blot analysis.
Briefly, endometrial cells were treated with fraxetin in a dose-dependent manner or in combination with signaling pathway inhibitors. Total proteins were extracted from the treated cells, and protein quantification was performed using the Bradford protein assay (Bio-Rad, Hercules, CA, USA). The extracted proteins were then denatured at 95° C. for 5 minutes and subjected to electrophoresis on a 10% SDS/PAGE gel before being transferred to a nitrocellulose membrane. The membrane was subsequently incubated with primary and secondary antibodies, and target protein expression was analyzed using chemiluminescence detection reagents (Supersignal West Pico, Pierce, Rockford, IL, USA) with the ChemiDoc EQ system and Quantity One software (Bio-Rad).

VK2/E6E7 cells [4] = experiment: Cell viability with signaling pathway inhibitors alone or combined with fraxetin; settings: wortmannin 1 μM, U0126 20 μM
Protocol: (§2) The AKT inhibitor wortmannin (1 μM), ERK1/2 inhibitor U0126 (20 μM), and JNK inhibitor SP600125 (20 μM) were used.

End1/E6E7 cells [5] = experiment: as above; settings: wortmannin 1 μM, U0126 20 μM
Protocol: as §2

VK2/E6E7 cells [6] = experiment: Mitochondrial membrane potential by JC-1 staining; settings: VK2/E6E7, with tiRNA^HisGTG inhibitor
End1/E6E7 cells [7] = experiment: Mitochondrial membrane potential by JC-1 staining; settings: End1/E6E7, with tiRNA^HisGTG inhibitor
Protocol: To examine changes in mitochondrial membrane potential (MMP) in endometrial cells induced by fraxetin, the inventors used a mitochondria staining kit (Cat no: CS0390, Sigma-Aldrich) to measure MMP.
In brief, End1/E6E7 and […] endometrial cell lines were cultured in 6-well plates, treated with fraxetin in a dose-dependent manner (0 μM, 5 μM, 10 μM, 20 μM, 50 μM, 100 μM), and incubated at 37° C. in a 5% CO2 incubator for 48 hours. Afterward, the cells were detached using trypsin, centrifuged to obtain cell pellets, resuspended in JC-1 staining solution, and incubated at 37° C. in a 5% CO2 incubator for 20 minutes. The stained cells were centrifuged again, washed with 1X JC-1 staining buffer, and analyzed using flow cytometry to assess changes in mitochondrial membrane potential.

VK2/E6E7 cells [8] = experiment: tiRNA expression by real-time PCR; settings: VK2/E6E7, inhibitor 40 nM transfected
Protocol: (§3) To confirm the expression of tiRNA (tRNA-derived stress-induced RNAs) associated with the development of endometriosis, the inventors conducted real-time PCR.
(§4) First, information on candidate tiRNA sequences and mature tRNA sources was obtained from MINTbase (https://cm.jefferson.edu/MINTbase/). miRNA CDNA synthesis was performed using a cDNA kit (Agilent Technologies) to confirm tiRNA expression, with U6 snRNA used for normalization. For transfection of the tiRNA^His GTG inhibitor (5′-AACCGAGAGUACUAACCACUAUACGAUCACCGC-3′) (40 nM), Lipofectamine 2000 was used in Opti-MEM.

End1/E6E7 cells [9] = experiment: tiRNA expression by real-time PCR; settings: End1/E6E7, inhibitor 40 nM transfected
Protocol: as §3, §4

VK2/E6E7 cells [10] = experiment: Apoptosis by Annexin V and propidium iodide staining; settings: VK2/E6E7, with tiRNA^HisGTG inhibitor
Protocol: (§5) To assess the apoptosis-inducing effect of fraxetin in endometrial cells, the inventors used a FITC Annexin V Apoptosis Detection Kit I (BD Sciences).
(§6) First, VK2/E6E7 and End1/E6E7 cells were cultured in 6-well plates, treated with fraxetin in a dose-dependent manner (0 μM, […], 10 μM, 20 µM, 50 μM, 100 μM), and incubated for 48 hours at 37° C. in a 5% CO2 incubator. The cells were then detached using trypsin, washed with PBS, and mixed slowly with 1 mL of 1X binding buffer. After centrifugation, the cell pellet was resuspended in 200 μL of 1X binding buffer. The suspension (100 μL) was transferred to a 1.5 mL brown tube, and 5 μL of Annexin V and PI (propidium iodide) were added, followed by staining at room temperature for 15 minutes. After adding 400 μL of 1X binding buffer, the stained solution was transferred to a 5 mL FACS tube, and the number of apoptotic cells was measured by analyzing fluorescence intensity using flow cytometry.

End1/E6E7 cells [11] = experiment: as above; settings: End1/E6E7, with tiRNA^HisGTG inhibitor
Protocol: as §5, §6

VK2/E6E7 cells [12] = experiment: BrdU cell proliferation assay; settings: VK2/E6E7, 48 hours
Protocol: (§7) To examine the effects of fraxetin on cell proliferation, the inventors performed a BrdU cell proliferation assay.
(§8) First, 5×10^3 cells of VK2/E6E7, End1/E6E7, and T-HESC were each distributed in 100 μL of medium in 96-well plates.
(§9) Fraxetin was then administered in a dose-dependent manner (0μM, 5 μM, 10 μM, 20 uM, 50 μM, 100 uM) and cultured for 48 hours, followed by the BrdU assay using a BrdU kit (Cat No: 1167229001, Roche) according to the manufacturer's instructions.
(§10) After 48 hours of incubation, 10 μM BrdU (Bromodeoxyuridine) was added to each well and incubated at 37° C. in a 5% CO2 incubator for 2 hours. The cells were then fixed, reacted with anti-BrdU-POD solution at room temperature for 90 minutes, and washed three times. Finally, 100 μL of 3, 3′, 5, 5′-tetramethylbenzidine substrate was added, and absorbance was measured at wavelengths of 370 nm and 492 nm to analyze cell proliferation.

End1/E6E7 cells [13] = experiment: BrdU cell proliferation assay; settings: End1/E6E7, 48 hours
Protocol: as §7, §8, §9, §10

CC(=O)N[C@@H](CS)C(=O)O [NAC, N-acetylcysteine, reference compound]
fraxetin-induced increase of ROS generation under co-treatment (VK2/E6E7 cells [1]; VK2/E6E7, 2 mM NAC): mitigated | fraxetin-induced increase of ROS generation under co-treatment (End1/E6E7 cells [2]; End1/E6E7, 2 mM NAC): mitigated

COC[C@H]1OC(=O)c2coc3c2[C@@]1(C)C1=C(C3=O)[C@@H]2CCC(=O)[C@@]2(C)C[C@H]1OC(C)=O [wortmannin, reference compound]
JNK phosphorylation (End1/E6E7 cells [3]; End1/E6E7, wortmannin 1 μM): no significant effect

N#CC(=C(/N)Sc1ccccc1N)/C(C#N)=C(\N)Sc1ccccc1N [U0126]
S6 phosphorylation, combined with fraxetin compared to fraxetin alone (End1/E6E7 cells [3]; End1/E6E7, inhibitor 20 μM): further downregulated | cell viability, combined treatment with fraxetin compared to inhibitor alone (VK2/E6E7 cells [4]): marked decrease | cell viability, combined treatment with fraxetin compared to inhibitor alone (End1/E6E7 cells [5]): marked decrease

C[C@]12CCC3=C4CCC(=O)C=C4CC[C@H]3[C@@H]1CC[C@@]2(O)CC#N [dienogest, reference compound]
relative ROS generation (VK2/E6E7 cells [1]; VK2/E6E7, Example 7 comparison fraxetin vs dienogest): did not show significant changes | relative ROS generation (End1/E6E7 cells [2]; End1/E6E7, Example 7 comparison fraxetin vs dienogest): did not show significant changes

tiRNA^HisGTG inhibitor: tiRNA^His GTG inhibitor (5′-AACCGAGAGUACUAACCACUAUACGAUCACCGC-3′), 40 nM, transfected with Lipofectamine 2000 (AACCGAGAGUACUAACCACUAUACGAUCACCGC; chemistry not given here) [reference compound]
fraxetin-induced MMP loss (VK2/E6E7 cells [6]): significantly mitigated | fraxetin-induced MMP loss (End1/E6E7 cells [7]): significantly mitigated | tiRNA^HisGTG mRNA expression (VK2/E6E7 cells [8]): decreased | tiRNA^HisGTG mRNA expression (End1/E6E7 cells [9]): decreased | fraxetin-induced apoptosis (VK2/E6E7 cells [10]): inhibited | fraxetin-induced apoptosis (End1/E6E7 cells [11]): inhibited | cell proliferation, sequential treatment with fraxetin (VK2/E6E7 cells [12]): decreased | cell proliferation, sequential treatment with fraxetin (End1/E6E7 cells [13]): decreased
